Reference: PubChem BioAssay AID2060498 (Molecular Pharmacology Branch, DTP, NCI, 2025)
pIC50: −log10 of the molar value.

System: 171881-019-R-J1-PDC tumor spheroids, viability
Assay: Anticancer human tumor 171881-019-R-J1-PDC patient-derived invasive breast carcinoma cell line growth inhibition [GQUAD]
Details: spheroids with HUVEC and MSC; for pIC50: curve of first compound; for viability, T/C: stronger effect = lower value
Procedure, shortened: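 Tumor cells were grown as complex spheroids with HUVEC endothelial cells and mesenchymal stem cells as stroma. G-quadruplex stabilizers were combined with targeted agents over half-log dilutions from near the clinical Cmax, or from 10 microM.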
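Also: spheroids exposed to compounds for 7 days.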
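For viability, T/C in this document: 100% = DMSO vehicle control viability.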

COc1ncnc(C2CC2)c1-c1ncc2cnn(Cc3ccc(-c4nc(C(F)(F)F)cn4C(C)C)cc3)c2n1 + Cc1cnc(CNC(=O)c2c(=O)c3ccc(N4CCCN(C)CC4)nc3n3c2sc2ccccc23)cn1
pIC50 (second compound 0.0316 µM): < 5.00
pIC50 (second compound 0.1 µM): < 5.00
pIC50 (second compound 0.316 µM): < 5.00
pIC50 (second compound 1 µM): < 5.00
pIC50 (second compound 3.16 µM): < 5.00
pIC50 (second compound 10 µM): < 5.00
viability, T/C (second compound 0.0316 µM, first compound 0.0316 µM): 93.6%
viability, T/C (second compound 0.0316 µM, first compound 0.1 µM): 85.3%
viability, T/C (second compound 0.0316 µM, first compound 0.316 µM): 82.4%
viability, T/C (second compound 0.0316 µM, first compound 1 µM): 85.4%
viability, T/C (second compound 0.0316 µM, first compound 3.16 µM): 92%
viability, T/C (second compound 0.0316 µM, first compound 10 µM): 87%
viability, T/C (second compound 0.1 µM, first compound 0.0316 µM): 76.2%
viability, T/C (second compound 0.1 µM, first compound 0.1 µM): 83%
viability, T/C (second compound 0.1 µM, first compound 0.316 µM): 70%
viability, T/C (second compound 0.1 µM, first compound 1 µM): 81.7%
viability, T/C (second compound 0.1 µM, first compound 3.16 µM): 73.9%
viability, T/C (second compound 0.1 µM, first compound 10 µM): 71.2%
viability, T/C (second compound 0.316 µM, first compound 0.0316 µM): 72.1%
viability, T/C (second compound 0.316 µM, first compound 0.1 µM): 74.3%
viability, T/C (second compound 0.316 µM, first compound 0.316 µM): 69.5%
viability, T/C (second compound 0.316 µM, first compound 1 µM): 65.8%
viability, T/C (second compound 0.316 µM, first compound 3.16 µM): 71.1%
viability, T/C (second compound 0.316 µM, first compound 10 µM): 63.3%
viability, T/C (second compound 1 µM, first compound 0.0316 µM): 69%
viability, T/C (second compound 1 µM, first compound 0.1 µM): 61.3%
viability, T/C (second compound 1 µM, first compound 0.316 µM): 62.3%
viability, T/C (second compound 1 µM, first compound 1 µM): 62.6%
viability, T/C (second compound 1 µM, first compound 3.16 µM): 63.5%
viability, T/C (second compound 1 µM, first compound 10 µM): 66.2%
viability, T/C (second compound 3.16 µM, first compound 0.0316 µM): 67.3%
viability, T/C (second compound 3.16 µM, first compound 0.1 µM): 57.6%
viability, T/C (second compound 3.16 µM, first compound 0.316 µM): 61.2%
viability, T/C (second compound 3.16 µM, first compound 1 µM): 56.4%
viability, T/C (second compound 3.16 µM, first compound 3.16 µM): 62%
viability, T/C (second compound 3.16 µM, first compound 10 µM): 66.2%
viability, T/C (second compound 10 µM, first compound 0.0316 µM): 53.4%
viability, T/C (second compound 10 µM, first compound 0.1 µM): 56.9%
viability, T/C (second compound 10 µM, first compound 0.316 µM): 54.2%
viability, T/C (second compound 10 µM, first compound 1 µM): 57.3%
viability, T/C (second compound 10 µM, first compound 3.16 µM): 63.1%
viability, T/C (second compound 10 µM, first compound 10 µM): 56.3%
